Source: patent publication US20200255828A1, “METHODS AND COMPOSITIONS FOR ALTERING FUNCTION AND STRUCTURE OF CHROMATIN LOOPS AND/OR DOMAINS” (THE BROAD INSTITUTE, INC., priority 2017, published 2020)

Key:
Format in all cases: cell-based, human
[1] = tested on: histone modifications; assay: ChIP-Seq for histone modifications before and after auxin
From the text: Applicants first examined the effects of cohesin degradation on key epigenomic features associated with genome folding, using ChIP-Seq. Applicants examined the distribution of CTCF (associated with loop anchors) and the histone modifications H3K27me3, H3K36me3, H3K27Ac, H3K4me1, H3K4me3, H3K9me3, H4K16Ac, H4K20me3, H3K79me2, and H2.AZ (associated with compartment intervals). Cohesin loss had little effect on these features (FIG. 1C,D; FIG. 8C-E, see Methods).
(§1) ChIP-Seq for H3K27Ac, H3K4me1, H3K4me3, H3K36me3, H3K27me3, H3K9me3, H4K16Ac, H4K20me3, H3K79me2, and H2.AZ was performed using a native ChIP-Seq protocol. Chromatin from untreated HCT-116 RAD21-mAC cells or cells treated for 6 hours with 500 uM IAA was digested with Mnase (Sigma) in digestion buffer (50 mM Tris-HCl, pH7.6, 1 mM CaCl2), 0.2% Triton X-100, butyrate 5 mM) for 5′ at 37° C. and dialyzed against RIPA buffer for 2 hrs at 4° C. Five microgram of respective antibody was incubated with 40 μl of Dynabeads Protein A (or G) for 40 min at room temperature. Antibody-bound beads were added to 500 μl of sonicated or Mnase-digested chromatin, incubated at 4° C. overnight, and washed twice with RIPA buffer, twice with RIPA buffer containing 0.3 M NaCl, twice with LiCl buffer (0.25 M LiCl, 0.5% Igepal-630, 0.5% sodium deoxycholate), once with TE (pH 8.0) plus 0.2% Triton X-100, and once with TE (pH 8.0). ChIP DNA was purified by phenol-chloroform extraction followed by ethanol precipitation. Libraries were prepped for Illumina sequencing and 50 bp single-end reads were sequenced on a HiSeq2000 or 2500 (Illumina). Applicants also performed ChIP-Seq for RAD21 and CTCF following the same protocol as above, except that cells were fixed with 1% formaldehyde for 10 minutes at 37° C. and fixation was quenched by the addition of glycine to a final concentration of 125 mM for 10 minutes. The fixed cells were sonicated using a Branson sonifier at amplitude 35%, 12 cycles of 20 seconds of sonication and 30 seconds of pause. Antibody was added to the sonicated chromatin as above and the samples were further processed as above.
(§2) All ChIP-Seq data was aligned to hg19 with BWA […] (Li and Durbin, 2010), deduplicated using PicardTools, and analyzed with MACS 2.0 (Liu, 2014). All data was normalized against the corresponding input control using the ‘-c’ option of MACS 2.0. ChIP-Seq peaks were called using the ‘callpeak’ function of MACS 2.0 with default parameters. For H3K4me3 and H3K4me1, Applicants additionally used the ‘broad’ option of MACS 2.0 and merged close by peaks to identify broad peaks. […] Finally, in order to annotate broad-source domains, Applicants utilized RSEG (Song and Smith, 2011) using the following flags: ‘-b 25000’, ‘-i 20’, ‘-mode 2’.
Applicants calculated average signal over 5 kb bins across the entire genome and correlated signal between ChIP-Seq experiments before and after auxin treatment for each of CTCF, H3K27me3, H3K9me3, H3K4me1, H3K4me3 and H3K27Ac.
Additionally, Applicants examined overlaps of our ChIP-Seq peak annotations before and after auxin treatment for H3K4me3, H3K4me1 and H3K27Ac. […]

[2] = tested on: cohesin complex; assay: ChIP-Seq for RAD21 and SMC1 (cohesin binding to chromatin) with and without auxin
From the text: Applicants employed an auxin-inducible degron (AID) (Natsume et al., 2016) to destroy RAD21, a core component of the cohesin complex. In this system, constitutive expression of the auxin-activated ubiquitin ligase TIR1 leads, in the presence of auxin, to rapid degradation of proteins tagged with an AID domain. Applicants used this system in HCT-116, a human colorectal carcinoma cell line. This cell line had been previously modified by (Natsume et al., 2016) so that both RAD21 alleles were tagged with an AID domain and a fluorescent mClover (“RAD21-mAC”) (FIG. 1A). Applicants confirmed that RAD21-mAC was efficiently degraded after 6 hours of auxin treatment using fluorescence microscopy and ChIP (FIG. 1B, 8, see Methods), and that cohesin could no longer associate with DNA using ChIP-Seq with antibodies for SMC1, a different cohesin subunit (FIG. 1C, D).
as §1
Applicants also performed ChIP-Seq for SMC1 and an additional replicate for CTCF following the protocol outlined by the ENCODE consortium (2012).
as §2
Applicants also analyzed the RAD21 and SMC1 signal at all ChIP-Seq peaks called in our data from untreated cells using MACS 2.0. […]

[3] = tested on: HCT-116 RAD21-mAC cells; assay: APA for cohesin-independent links after cohesin degradation with ATP depletion; conditions: auxin 6 hours, without any additional treatment
From the text: Using the degron system, Applicants can directly measure the influence of cellular processes on loop formation (Vian et al, 2018). […] Applicants also tested interchromasomal cohesin-independent links requirement for ATP after cohesin degradation and observed that depletion of ATP strengthens the interactions between superenhancers (FIG. 23).

[4] = average at ChIP-Seq peaks called in untreated cells

O=C(O)Cc1c[nH]c2ccccc12 [auxin, indole-3-acetic acid]
overlap of H3K4me1 ChIP-Seq peaks called before and after auxin treatment [1]: 85%
overlap of H3K4me3 ChIP-Seq peaks called before and after auxin treatment [1]: 90%
overlap of H3K27Ac ChIP-Seq peaks called before and after auxin treatment [1]: 81%
Spearman's r of ChIP-Seq signal before vs after auxin treatment, H2.AZ ([1]; 5 kb bins genome-wide): 0.96
Spearman's r of ChIP-Seq signal before vs after auxin treatment, H3K4me1 ([1]; 5 kb bins genome-wide): 0.94
Spearman's r of ChIP-Seq signal before vs after auxin treatment, H3K4me3 ([1]; 5 kb bins genome-wide): 0.70
Spearman's r of ChIP-Seq signal before vs after auxin treatment, H3K9me3 ([1]; 5 kb bins genome-wide): 0.95
Spearman's r of ChIP-Seq signal before vs after auxin treatment, H3K27Ac ([1]; 5 kb bins genome-wide): 0.90
Spearman's r of ChIP-Seq signal before vs after auxin treatment, H3K27me3 ([1]; 5 kb bins genome-wide): 0.95
Spearman's r of ChIP-Seq signal before vs after auxin treatment, H3K36me3 ([1]; 5 kb bins genome-wide): 0.94
Spearman's r of ChIP-Seq signal before vs after auxin treatment, H3K79me2 ([1]; 5 kb bins genome-wide): 0.96
Spearman's r of ChIP-Seq signal before vs after auxin treatment, H4K16Ac ([1]; 5 kb bins genome-wide): 0.95
Spearman's r of ChIP-Seq signal before vs after auxin treatment, H4K20me3 ([1]; 5 kb bins genome-wide): 0.89
cohesin peaks (merged SMC1 and RAD21 ChIP-Seq calls) lost after auxin treatment ([2]; 6 hours auxin): 97%
reduction in binding strength of RAD21 [2, 4]: 81%
reduction in binding strength of SMC1 [2, 4]: 75%
RAD21 mean enrichment in treated cells ([2]; untreated 12.58): 2.39
SMC1 mean enrichment in treated cells ([2]; untreated 16.23): 4.00
APA score for cohesin-independent links [3]: 8.28
